Experimental data taken from US20160318856A1, “Substituted Urea eIF2alpha Kinase Activators” (THE BRIGHAM AND WOMEN'S HOSPITAL, INC., priority 2013, published 2016).
Like-named read-outs stand apart in the source and are kept apart here.

Columns and labels:
Panc-1 = experiment: cell proliferation (SRB) assay, Panc-1; assay type: cell-based; conditions: Homo sapiens, Table 7
Method: (§1) Cells were seeded in 96-well plates and maintained for 5 days in the presence of 0.5 to 20 μM of individual compound, and cell proliferation was measured by the sulforhodamine B (SRB) assay as described previously (see, for example, Palakurthi, S. S. et al. Cancer Research 2000, 60(11), 2919-2925). Briefly, at the end of a 5-day treatment, cells were fixed in 10% cold trichloroacetic acid. Cell number was estimated by measuring the remaining bound dye of sulforhodamine B after washing. The percentage of growth was calculated by using the equation: 100×[(T−T0)/(C−T0)], where T and C represent the absorbance in treated and control cultures at Day 5, and T0 at time zero, respectively. If T is less than T0, cell death has occurred and can be calculated from 100×[(T−T0)/T0].
(§2) The compounds shown in Table 7 were evaluated using for activation of HRI using the dual luciferase surrogate eIF2α phosphorylation assay (see, for example, Chen, T. et al. Nature Chem Biol 2011, 7, 610-616) and for inhibition of cell proliferation using the SRB assay (see, for example, Palakurthi, S. S. et al. Cancer Res 2000, 60, 2919-2925) as described above.

ASPC-1 = experiment: cell proliferation assay, ASPC-1; assay type: cell-based; conditions: Homo sapiens, ASPC1; SRB assay, Table 7; read-out: IC50 ASPC-1
Method: as §1, §2

[1] = tested on: eIF2α phosphorylation (eIF2•GTP•Met-tRNAi ternary complex; HRI activation); experiment: surrogate dual luciferase eIF2α phosphorylation (ternary complex) assay; assay type: cell-based, human; conditions: for maximal fold induction: Homo sapiens; for C3X: Calculated concentration of compound that will cause three-fold increase in the surrogate eIF2α phosphorylation assay: Table 7
In short: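 Cell-based dual luciferase reporter: firefly luciferase behind the ATF-4 5′UTR (uORFs) and renilla luciferase behind a uORF-free 5′UTR, read with a dual glow kit. Activity given as firefly/renilla ratio normalised to DMSO wells set at 1, with a rising ratio reflecting reduced ternary complex (e.g., HRI activation).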

[2] = tested on: CRL-2813 human melanoma cancer cells; experiment: cell proliferation (SRB) assay, CRL-2813; assay type: cell-based
In short: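 Cells exposed 5 days to 0.5–20 μM compound, then TCA-fixed and stained with sulforhodamine B. Growth as 100×[(T−T0)/(C−T0)] from absorbance of treated, control and time-zero cultures; cell death as 100×[(T−T0)/T0] where T is below T0.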

NIH/3T3 fibroblast cells = experiment: cell proliferation (SRB) assay, NIH/3T3; assay type: cell-based
Method: as §1
The experiments were conducted in triplicate, and each experiment was independently performed three times. IC50=effective dose of drug that inhibit cell proliferation by 50%. Data are shown as Mean±S.E.M.
Compounds I-6p, I-17, I-18 and I-20 were tested in NIH/3T3 fibroblast and CRL-2813 melanoma cancer cells in cell proliferation assay. The experiment was conducted in triplicate and each experiment was independently performed three times. Data are shown as Mean IC50±S.E.M.

[3] = tested on: CRL-2813 human melanoma cancer cells transfected with HRI-targeting or non-targeting siRNA; experiment: cell proliferation (SRB) assay after HRI knockdown; assay type: cell-based; conditions: for fold higher IC50 values in cells transfected with HRI-targeting siRNA vs. non-targeting siRNA: CRL-2813 cells, FIG. 10; for dependence of inhibition of cell proliferation on HRI: HRI siRNA vs non-target siRNA, CRL-2813 (also MCF-7); for fold difference in resistance of cells to inhibition of cell proliferation upon HRI knockdown: average, CRL-2813, FIG. 8
Method: as §1
Cell proliferation is a meaningful read-out for determining the specificity of a compound as it captures both on-target and off-target effects of the compound under study. […] If these compounds specifically activate HRI and this activity is required for the inhibition of cell proliferation, then reducing the expression of HRI should blunt their effect on cell proliferation. For this purpose, expression of HRI was knocked down in CRL-2813 human melanoma (about 70% knockdown efficiency) and MCF-7 human breast cancer cells (about 90% knockdown efficiency). These two cell lines were chosen because the HRI knockdown efficiency is lower in CRL-2813 than in MCF-7 cells providing a sort of dose-response data that correlates knockdown efficiency with the resistance of cells to inhibition of cell proliferation. […] Referring to FIG. 5A, CRL-2813 human melanoma cancer cells, and (FIG. 5B) MCF-7 human breast cancer cells were transfected with HRI targeted or non-targeted siRNA, treated with the indicated concentrations of I-6p and cell proliferation was measured by SRB assay. Calculated IC50 for all four compounds tested in CRL-2813 human melanoma cancer cells and MCF-7 human breast cancer cells transfected with non-target siRNA control (NTC) or HRI is shown in FIG. 5C and FIG. 5D, respectively. The experiment was conducted in triplicate and each experiment was independently performed three times. Data are shown as Mean±S.E.M. *NTC=non-target siRNA control.
Referring to FIG. 8, CRL-2813 human melanoma cancer cells were transfected with HRI targeted or non-targeted siRNA, treated with the indicated concentrations of (A) I-14, (B) I-15, (C) III-4 and (D) III-5 and cell proliferation was measured by SRB assay. Calculated IC50 for all four compounds tested in CRL-2813 human melanoma cancer cells transfected with non-target siRNA control (NTC) or HRI is shown in (E). The experiment was conducted in triplicate and each experiment was independently performed three times. Data are shown as Mean±S.E.M. *NTC=non-target siRNA control, IC50=effective dose of drug that inhibit cell proliferation by 50%.
In general, if the affinity of compounds for their molecular target is increased this should result in higher specificity of the compounds in the cell proliferation assay. […] These five compounds, two with average and three with high potency, were tested in cell proliferation assay using CRL-2813 cells transfected with non-targeted siRNA or HRI-targeted siRNA as described above.

[4] = DMSO = 1, maximum tested concentration 20 μM, read-out: Emax: Maximum activity of compound expressed as fold over vehicle
[5] = Homo sapiens, CRL2813, SRB assay, Table 7, read-out: IC50 CRL-2813
[6] = surrogate eIF2α phosphorylation assay, Table 3, read-out: Emax (F/R)
[7] = Homo sapiens, CRL2813, cell proliferation assay, Table 3, cell line not named, values equal CRL-2813 values of Table 8, read-out: IC50
[8] = surrogate eIF2α phosphorylation assay, Table 4, read-out: Emax (F/R)
[9] = Homo sapiens, CRL2813, cell proliferation assay, Table 4, cell line not named, read-out: IC50

Structure (SMILES) | IC50 (Panc-1) | IC50 (ASPC-1) | maximal fold induction [1, 4] | C3X: Calculated concentration of compound that will cause three-fold increase in the surrogate eIF2α phosphorylation assay [1] | IC50 [2, 5] | also measured
NC(=O)c1cc(C(F)(F)F)ccc1O[C@H]1CC[C@H](NC(=O)Nc2cccc(C(F)(F)F)c2)CC1 | 2.7 µM | 4 µM | 8 | 7 µM | 1.9 µM | –
O=C(Nc1cccc(C(F)(F)F)c1)N[C@H]1CC[C@H](Oc2ccc(C(F)(F)F)cc2[N+](=O)[O-])CC1 | 4 µM | > 10 µM | 13 | 5 µM | 4 µM | –
O=C(Nc1ccc(OC(F)(F)F)cc1)NC1CCC(Oc2ccc(F)cc2)CC1 (stereo not shown) [Compound I-6p] | – | – | – | – | – | fold higher potency on cancer cells compared to non-transformed cells (NIH/3T3 fibroblast cells; CRL-2813 human melanoma vs NIH-3T3 fibroblast): five-fold higher potency; IC50 (NIH/3T3 fibroblast cells; NIH/3T3, Table 5, Mean±S.E.M., read-out: IC50): 13.6 ± 0.8 µM; IC50 (NIH/3T3 fibroblast cells; NIH/3T3, Table 8, Mean IC50±S.E.M., read-out: IC50 of compounds): 13.6 ± 0.8 µM; Emax (F/R) ([1]; ternary complex assay, F/R normalized to vehicle (DMSO = 1)): 15.32 F/R; IC50 ([2]; CRL-2813, Table 5, Mean±S.E.M., read-out: IC50): 2.7 ± 0.1 µM; IC50 ([2]; CRL-2813, Table 8, Mean IC50±S.E.M., read-out: IC50 of compounds): 2.7 ± 0.1 µM; IC50 ([2]; cell proliferation assay (SRB, 5 days), cell line not named in Table 1, values equal CRL-2813 values of Tables 5/8, read-out: IC50): 2.7 ± 0.1 µM
NC(=O)c1cc(O[C@H]2CC[C@H](NC(=O)Nc3cccc(C(F)(F)F)c3)CC2)ccc1C(F)(F)F | 2.5 µM | 3 µM | 2.8 | >20 µM | 2.1 µM | –
O=C(Nc1cccc(C(F)(F)F)c1)NC1CCC(Oc2ccccc2F)CC1 (stereo not shown) [Compound I-14, 1-(4-(2-Fluorophenoxy)cyclohexyl)-3-(3-(trifluoromethyl)phenyl)urea] | – | – | – | – | – | maximal fold induction [1, 6]: 7.98; IC50 [2, 7]: 2.45 ± 0.9 µM; fold higher IC50 values in cells transfected with HRI-targeting siRNA vs. non-targeting siRNA [3]: ~7 fold; dependence of inhibition of cell proliferation on HRI [3]: dependent on HRI; fold difference in resistance of cells to inhibition of cell proliferation upon HRI knockdown [3]: ~8 fold
NC(=O)c1cc(C(F)(F)F)ccc1O[C@H]1CC[C@H](NC(=O)Nc2cccc(OC(F)(F)F)c2)CC1 | 1.9 µM | 3.2 µM | 6 | 8 µM | 1.4 µM | –
O=C(Nc1cccc(C(F)(F)F)c1)NC1CCC(OCc2ccc(F)cc2)CC1 (stereo not shown) [III-4, 1-(4-((4-Fluorobenzyl)oxy)cyclohexyl)-3-(3-(trifluoromethyl)phenyl)urea] | – | – | – | – | – | maximal fold induction [1, 8]: 9.58; IC50 [2, 9]: 2.65 ± 0.8 µM; dependence of inhibition of cell proliferation on HRI [3]: dependent on HRI
O=C(Nc1cccc(C(F)(F)F)c1)NC1CCC(Oc2cccc(F)c2)CC1 (stereo not shown) [Compound I-15, 1-(4-(3-Fluorophenoxy)cyclohexyl)-3-(3-(trifluoromethyl)phenyl)urea] | – | – | – | – | – | maximal fold induction [1, 6]: 7.23; IC50 [2, 7]: 2.4 ± 0.6 µM; fold higher IC50 values in cells transfected with HRI-targeting siRNA vs. non-targeting siRNA [3]: ~7 fold; dependence of inhibition of cell proliferation on HRI [3]: dependent on HRI; fold difference in resistance of cells to inhibition of cell proliferation upon HRI knockdown [3]: ~8 fold
CC(=O)Nc1cc(C(F)(F)F)ccc1O[C@H]1CC[C@H](NC(=O)Nc2cccc(OC(F)(F)F)c2)CC1 | 2.5 µM | 2.8 µM | 5 | 4 µM | 1.7 µM | –
O=C(Nc1cccc(OC(F)(F)F)c1)N[C@H]1CC[C@H](Oc2ccc(C(F)(F)F)cc2)CC1 | 1.5 µM | 1 µM | 28 | 0.2 µM | 0.9 µM | –
CC(=O)Nc1cc(C(F)(F)F)ccc1O[C@H]1CC[C@H](NC(=O)Nc2cccc(C(F)(F)F)c2)CC1 | 1.7 µM | 2.6 µM | 4.2 | 3.5 µM | 1.9 µM | –
O=C(Nc1cccc(OC(F)(F)F)c1)N[C@H]1CC[C@H](Oc2ccc(C(F)(F)F)cc2[N+](=O)[O-])CC1 | 1.1 µM | 0.8 µM | 12 | 0.5 µM | 0.5 µM | –
O=C(Nc1cccc(C(F)(F)F)c1)N[C@H]1CC[C@H](Oc2ccc(C(F)(F)F)cc2)CC1 | 0.9 µM | 0.9 µM | 25 | 0.4 µM | 0.5 µM | –
O=C(Nc1cccc(C(F)(F)F)c1)NC1CCCCC1Oc1ccc(C(F)(F)F)cc1 (stereo not shown) [III-5, 1-(2-(4-(Trifluoromethyl)phenoxy)cyclohexyl)-3-(3-(trifluoromethyl)phenyl)urea] | – | – | – | – | – | maximal fold induction [1, 8]: 5.89; IC50 [2, 9]: 3.1 ± 1.1 µM; dependence of inhibition of cell proliferation on HRI [3]: dependent on HRI
NC(=O)c1cc(O[C@H]2CC[C@H](NC(=O)Nc3cccc(OC(F)(F)F)c3)CC2)ccc1C(F)(F)F | 3 µM | 2.9 µM | 5 | 14 µM | 3 µM | –
